According to ChEMBL document CHEMBL4414548 (J Med Chem, 2019):
Activity calls are given as the source filed them. The calls are words filed in the database; no cut-off is given here.

Columns and labels:
[1] = molecular target: Tyrosine-protein kinase JAK1 (Homo sapiens, UniProt P23458); assay: Inhibition of JAK1 JH1 domain (unknown origin)
[2] = molecular target: JAK2/TYK2 (Homo sapiens, UniProt O60674+P29597); assay: Inhibition of TYK2/JAK2 in IL23-stimulated human Kit225 cells by steady-glo luciferase assay
[3] = molecular target: T1, Non-receptor tyrosine-protein kinase TYK2 (Homo sapiens, UniProt P29597); assay: Inhibition of fluorescein-labeled kinase tracer binding to His-TVMV-fused TYK2 JH2 domain (575 to 869 residues) (unknown origin) measured after 90 mins by HTRF assay
[4] = molecular target: T1, Non-receptor tyrosine-protein kinase TYK2; assay: Inhibition of TYK2 JH1 domain (unknown origin)
[5] = molecular target: T1, Non-receptor tyrosine-protein kinase TYK2; assay: Inhibition of TYK2 JH2 (unknown origin) by morrison titration assay; details: read-out: Ki(app)
[6] = molecular target: T2, Inhibitor of nuclear factor kappa-B kinase subunit beta (Homo sapiens) (UniProt O14920); assay: Inhibition of IKKbeta (unknown origin)
T2 sequence (whole entry): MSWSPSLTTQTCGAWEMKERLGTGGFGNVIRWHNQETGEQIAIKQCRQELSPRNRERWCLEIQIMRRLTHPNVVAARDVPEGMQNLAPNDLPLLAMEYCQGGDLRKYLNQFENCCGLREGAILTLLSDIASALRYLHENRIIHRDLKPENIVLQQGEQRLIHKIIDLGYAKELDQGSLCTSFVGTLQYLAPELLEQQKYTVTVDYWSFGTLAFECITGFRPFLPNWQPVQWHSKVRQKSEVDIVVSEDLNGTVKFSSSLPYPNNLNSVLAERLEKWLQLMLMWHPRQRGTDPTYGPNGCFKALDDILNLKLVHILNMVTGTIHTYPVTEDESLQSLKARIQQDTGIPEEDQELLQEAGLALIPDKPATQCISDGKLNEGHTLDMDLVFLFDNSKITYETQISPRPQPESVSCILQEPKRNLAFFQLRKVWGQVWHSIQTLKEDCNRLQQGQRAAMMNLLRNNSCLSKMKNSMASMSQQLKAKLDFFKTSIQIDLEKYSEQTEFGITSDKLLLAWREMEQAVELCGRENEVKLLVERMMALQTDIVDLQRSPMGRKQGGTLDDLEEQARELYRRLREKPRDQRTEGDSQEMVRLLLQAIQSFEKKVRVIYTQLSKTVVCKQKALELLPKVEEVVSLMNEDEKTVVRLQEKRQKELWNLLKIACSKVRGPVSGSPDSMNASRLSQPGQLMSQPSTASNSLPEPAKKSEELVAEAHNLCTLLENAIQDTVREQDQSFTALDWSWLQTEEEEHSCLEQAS

[7] = Metabolic stability in pooled mouse liver microsomes at 0.5 uM after 10 mins by UV based analysis; type: ADME, Microsome; details: read-out: Stability
[8] = molecular target: Tyrosine-protein kinase JAK2 (Homo sapiens, UniProt O60674); assay: Inhibition of JAK2 JH1 domain (unknown origin)
[9] = Metabolic stability in pooled human liver microsomes at 0.5 uM after 10 mins by UV based analysis; type: ADME, Microsome; details: read-out: Stability
[10] = molecular target: T1, Non-receptor tyrosine-protein kinase TYK2; assay: Inhibition of TYK2 JH2 (unknown origin) by Scintillation proximity assay
[11] = molecular target: JAK1/TYK2 (Homo sapiens, UniProt P23458+P29597); assay: Inhibition of TYK2/JAK1 in IFNalpha-stimulated human Kit225 cells by steady-glo luciferase assay
[12] = molecular target: JAK2/JAK1 (Homo sapiens, UniProt O60674+P23458); assay: Inhibition of JAK1/JAK2 (unknown origin) in GM-CSF stimulated cells by cell based assay
[13] = molecular target: JAK3/JAK1 (Homo sapiens, UniProt P23458+P52333); assay: Inhibition of JAK1/JAK3 (unknown origin) in IL-2 stimulated cells by cell based assay
Sequence of JAK3/JAK1 (P52333 whole entry): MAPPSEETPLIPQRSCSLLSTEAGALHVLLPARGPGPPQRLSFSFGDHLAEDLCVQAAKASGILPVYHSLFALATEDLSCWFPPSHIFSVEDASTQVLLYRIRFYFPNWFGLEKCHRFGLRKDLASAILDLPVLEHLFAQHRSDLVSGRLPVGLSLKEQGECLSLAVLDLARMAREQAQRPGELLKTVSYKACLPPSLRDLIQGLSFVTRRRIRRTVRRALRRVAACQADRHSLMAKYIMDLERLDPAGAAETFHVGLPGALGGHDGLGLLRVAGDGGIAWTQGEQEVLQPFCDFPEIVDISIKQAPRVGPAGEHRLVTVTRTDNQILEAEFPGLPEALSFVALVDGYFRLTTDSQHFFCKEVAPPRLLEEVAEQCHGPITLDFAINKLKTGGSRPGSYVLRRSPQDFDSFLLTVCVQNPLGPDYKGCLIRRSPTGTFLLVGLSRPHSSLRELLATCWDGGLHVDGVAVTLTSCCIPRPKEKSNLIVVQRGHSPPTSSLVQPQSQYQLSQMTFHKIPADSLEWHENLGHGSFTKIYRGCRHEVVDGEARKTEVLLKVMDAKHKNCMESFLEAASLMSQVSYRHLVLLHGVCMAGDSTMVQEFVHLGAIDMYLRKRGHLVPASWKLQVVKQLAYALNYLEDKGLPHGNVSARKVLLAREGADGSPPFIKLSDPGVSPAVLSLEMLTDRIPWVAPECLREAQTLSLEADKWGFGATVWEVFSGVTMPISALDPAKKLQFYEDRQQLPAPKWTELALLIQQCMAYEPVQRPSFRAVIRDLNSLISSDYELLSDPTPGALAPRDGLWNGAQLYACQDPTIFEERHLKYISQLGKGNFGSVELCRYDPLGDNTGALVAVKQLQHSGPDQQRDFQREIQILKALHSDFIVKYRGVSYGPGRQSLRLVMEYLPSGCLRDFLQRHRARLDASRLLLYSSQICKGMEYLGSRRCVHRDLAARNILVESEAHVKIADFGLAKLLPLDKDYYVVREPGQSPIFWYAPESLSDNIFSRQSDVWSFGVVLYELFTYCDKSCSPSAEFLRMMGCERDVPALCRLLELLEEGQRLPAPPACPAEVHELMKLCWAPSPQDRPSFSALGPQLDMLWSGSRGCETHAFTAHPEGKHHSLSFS
Sequence of JAK3/JAK1 (P23458 whole entry): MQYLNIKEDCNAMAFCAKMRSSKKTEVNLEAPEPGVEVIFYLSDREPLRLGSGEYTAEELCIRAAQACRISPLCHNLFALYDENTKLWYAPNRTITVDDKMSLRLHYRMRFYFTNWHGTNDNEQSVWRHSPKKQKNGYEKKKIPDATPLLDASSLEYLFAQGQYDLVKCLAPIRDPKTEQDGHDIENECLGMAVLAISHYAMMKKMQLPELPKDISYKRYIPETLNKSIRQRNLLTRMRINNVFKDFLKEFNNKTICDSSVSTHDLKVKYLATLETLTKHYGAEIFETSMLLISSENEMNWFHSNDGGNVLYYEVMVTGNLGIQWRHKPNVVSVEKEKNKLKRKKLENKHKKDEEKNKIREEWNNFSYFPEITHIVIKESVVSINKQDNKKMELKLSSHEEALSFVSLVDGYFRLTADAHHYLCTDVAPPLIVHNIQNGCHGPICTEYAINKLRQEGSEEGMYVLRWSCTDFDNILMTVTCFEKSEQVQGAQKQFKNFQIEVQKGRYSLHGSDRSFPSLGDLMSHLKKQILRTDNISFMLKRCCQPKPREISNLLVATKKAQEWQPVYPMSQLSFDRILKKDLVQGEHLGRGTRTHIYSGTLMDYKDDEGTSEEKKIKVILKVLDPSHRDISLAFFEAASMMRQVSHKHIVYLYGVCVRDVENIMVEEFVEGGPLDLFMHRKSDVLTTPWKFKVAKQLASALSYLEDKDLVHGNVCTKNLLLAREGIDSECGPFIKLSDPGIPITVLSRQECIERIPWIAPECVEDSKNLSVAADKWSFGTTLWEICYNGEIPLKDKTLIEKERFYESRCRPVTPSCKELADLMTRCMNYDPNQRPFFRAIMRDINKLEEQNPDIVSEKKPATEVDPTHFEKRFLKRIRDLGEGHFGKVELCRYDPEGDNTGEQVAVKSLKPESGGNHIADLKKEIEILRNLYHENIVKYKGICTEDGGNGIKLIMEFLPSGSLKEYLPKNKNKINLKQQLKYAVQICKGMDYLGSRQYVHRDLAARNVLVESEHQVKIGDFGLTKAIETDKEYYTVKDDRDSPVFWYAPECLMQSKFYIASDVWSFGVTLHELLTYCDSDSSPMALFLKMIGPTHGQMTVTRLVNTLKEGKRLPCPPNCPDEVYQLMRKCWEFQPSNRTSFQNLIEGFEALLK

T1 sequence (P29597 whole entry, the tested form may be a part): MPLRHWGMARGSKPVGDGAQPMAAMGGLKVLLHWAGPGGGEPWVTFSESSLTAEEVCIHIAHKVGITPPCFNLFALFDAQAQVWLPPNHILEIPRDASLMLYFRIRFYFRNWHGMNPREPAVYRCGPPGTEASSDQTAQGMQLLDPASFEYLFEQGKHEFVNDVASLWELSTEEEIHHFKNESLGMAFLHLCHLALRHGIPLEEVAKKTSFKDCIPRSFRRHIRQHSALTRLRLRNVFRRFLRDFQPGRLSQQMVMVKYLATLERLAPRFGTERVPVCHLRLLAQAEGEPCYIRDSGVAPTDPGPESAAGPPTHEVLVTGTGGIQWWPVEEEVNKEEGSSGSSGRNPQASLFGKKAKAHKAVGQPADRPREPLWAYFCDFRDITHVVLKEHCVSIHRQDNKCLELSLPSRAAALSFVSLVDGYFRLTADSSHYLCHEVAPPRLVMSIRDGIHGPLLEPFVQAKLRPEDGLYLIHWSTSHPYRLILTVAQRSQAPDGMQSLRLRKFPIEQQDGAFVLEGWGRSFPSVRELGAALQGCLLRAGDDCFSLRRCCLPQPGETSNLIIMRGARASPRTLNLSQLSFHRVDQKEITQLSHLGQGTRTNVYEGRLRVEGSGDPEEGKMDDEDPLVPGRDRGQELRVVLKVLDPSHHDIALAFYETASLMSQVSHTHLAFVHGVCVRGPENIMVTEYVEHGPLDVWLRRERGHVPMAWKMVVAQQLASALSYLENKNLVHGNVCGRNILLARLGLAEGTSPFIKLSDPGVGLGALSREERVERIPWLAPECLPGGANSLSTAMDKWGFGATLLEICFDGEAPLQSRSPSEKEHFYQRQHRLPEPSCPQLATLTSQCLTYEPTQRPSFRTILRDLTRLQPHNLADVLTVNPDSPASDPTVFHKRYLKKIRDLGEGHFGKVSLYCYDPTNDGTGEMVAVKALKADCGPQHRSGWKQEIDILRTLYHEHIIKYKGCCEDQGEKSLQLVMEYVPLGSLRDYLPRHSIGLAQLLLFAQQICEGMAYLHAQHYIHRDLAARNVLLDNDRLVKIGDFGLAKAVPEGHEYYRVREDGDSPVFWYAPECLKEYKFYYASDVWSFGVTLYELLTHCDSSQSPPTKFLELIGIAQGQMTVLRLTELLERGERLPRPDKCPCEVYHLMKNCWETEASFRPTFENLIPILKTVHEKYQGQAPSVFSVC
Sequence of Tyrosine-protein kinase JAK1 (P23458 whole entry, the tested form may be a part): as the sequence (P23458 whole entry) above
Sequence of JAK2/JAK1 (P23458 whole entry): as above
Sequence of JAK2/JAK1 (O60674 whole entry): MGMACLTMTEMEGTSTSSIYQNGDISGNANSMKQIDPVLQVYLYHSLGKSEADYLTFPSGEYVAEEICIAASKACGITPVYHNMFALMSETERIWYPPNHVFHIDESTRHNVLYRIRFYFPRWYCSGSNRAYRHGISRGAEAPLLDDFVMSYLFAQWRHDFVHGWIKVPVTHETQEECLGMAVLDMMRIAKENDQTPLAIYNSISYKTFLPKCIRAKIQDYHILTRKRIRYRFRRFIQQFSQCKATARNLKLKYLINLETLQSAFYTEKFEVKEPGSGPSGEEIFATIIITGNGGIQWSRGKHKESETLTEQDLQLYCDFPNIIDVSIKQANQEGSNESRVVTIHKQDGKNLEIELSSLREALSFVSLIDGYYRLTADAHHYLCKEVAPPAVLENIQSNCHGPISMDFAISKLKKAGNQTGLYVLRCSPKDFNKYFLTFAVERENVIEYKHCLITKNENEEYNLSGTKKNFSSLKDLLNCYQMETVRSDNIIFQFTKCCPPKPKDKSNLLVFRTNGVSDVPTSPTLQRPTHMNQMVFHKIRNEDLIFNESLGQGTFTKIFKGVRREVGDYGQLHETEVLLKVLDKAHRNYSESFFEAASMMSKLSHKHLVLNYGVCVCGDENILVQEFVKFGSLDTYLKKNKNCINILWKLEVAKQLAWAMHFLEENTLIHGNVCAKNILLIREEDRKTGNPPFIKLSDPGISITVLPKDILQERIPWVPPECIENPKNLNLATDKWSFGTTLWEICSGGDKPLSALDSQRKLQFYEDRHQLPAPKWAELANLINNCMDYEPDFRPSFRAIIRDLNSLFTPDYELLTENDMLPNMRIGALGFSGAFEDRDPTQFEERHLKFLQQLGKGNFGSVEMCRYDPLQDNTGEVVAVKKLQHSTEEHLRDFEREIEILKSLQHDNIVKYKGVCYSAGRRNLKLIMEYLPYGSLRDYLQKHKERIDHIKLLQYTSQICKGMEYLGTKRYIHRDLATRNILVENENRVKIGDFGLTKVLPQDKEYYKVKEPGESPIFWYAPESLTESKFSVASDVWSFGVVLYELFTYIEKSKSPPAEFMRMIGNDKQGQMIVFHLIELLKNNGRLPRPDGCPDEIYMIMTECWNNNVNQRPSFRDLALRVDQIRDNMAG
Sequence of JAK1/TYK2 (P23458 whole entry): as the sequence (P23458 whole entry) above
Sequence of JAK1/TYK2 (P29597 whole entry): as the sequence (P29597 whole entry, the tested form may be a part) above
Sequence of JAK2/TYK2 (O60674 whole entry, the tested form may be a part): as the sequence (O60674 whole entry) above
Sequence of JAK2/TYK2 (P29597 whole entry, the tested form may be a part): as the sequence (P29597 whole entry, the tested form may be a part) above
Sequence of Tyrosine-protein kinase JAK2 (O60674 whole entry, the tested form may be a part): as the sequence (O60674 whole entry) above

SMILES: NC(=O)c1ccccc1Nc1cc(Nc2ccc(F)cn2)ncc1C(N)=O
- IC50 [1]: 26 nM
- IC50 [2]: 89 nM
- IC50 [3]: 0.46 nM
- IC50 [4]: 15 nM
- Ki [5]: 0.06 nM
- inhibition [6]: inactive
- remaining at 10 min, 0.5 µM [7]: > 80%
- IC50 [8]: 24 nM
- remaining at 10 min, 0.5 µM [9]: > 80%
- EC50 [10]: 6.6 nM
- IC50 [11]: 37 nM
- IC50 [12]: 210 nM
- IC50 [13]: 400 nM
